For the first experiment, the target named is 5-hydroxytryptamine receptor 6 (Homo sapiens, UniProt P50406). As to the kind of experiment: Displacement of [3H]5-LSD from human 5HT6 receptor expressed in human HeLa cells. It is filed as cell-based. In general terms: Displacement assays read how much labelled ligand stays bound in the presence of the test substance.
Sequence of 5-hydroxytryptamine receptor 6 (P50406 whole entry): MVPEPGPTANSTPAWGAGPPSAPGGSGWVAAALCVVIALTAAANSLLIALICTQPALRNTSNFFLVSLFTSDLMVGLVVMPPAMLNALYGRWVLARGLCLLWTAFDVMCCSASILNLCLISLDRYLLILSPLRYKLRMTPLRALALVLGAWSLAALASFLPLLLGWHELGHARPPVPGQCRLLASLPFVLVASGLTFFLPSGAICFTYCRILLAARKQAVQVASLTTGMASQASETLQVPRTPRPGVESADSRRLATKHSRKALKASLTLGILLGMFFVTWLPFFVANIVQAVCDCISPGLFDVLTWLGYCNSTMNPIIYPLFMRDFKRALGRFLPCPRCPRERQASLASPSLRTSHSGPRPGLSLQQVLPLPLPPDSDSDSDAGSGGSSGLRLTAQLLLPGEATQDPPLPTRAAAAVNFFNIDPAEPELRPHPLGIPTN
`Cc1ccccc1Sc1ccc2c(c1)N1CCNCC1C2` (stereo unspecified): the inhibitory constant (Ki) (usually the equilibrium dissociation constant of an inhibitor or competing ligand from its target) amounted to 81 nM.

Compound `Cc1cccc(Sc2ccc3c(c2)N2CCNCC2C3)c1` (stereo unspecified) came in with a Ki of 50 nM. Against the preceding compound, the Ki is about 1.6-fold lower.

For `Cc1ccc(Sc2ccc3c(c2)N2CCNCC2C3)cc1` (stereo unspecified), the inhibitory constant (Ki) was 110 nM. Compared with the last compound, the Ki is about 2.2-fold higher.

As to `COc1ccccc1Sc1ccc2c(c1)N1CCNCC1C2` (stereo unspecified), the inhibition constant Ki amounted to 23 nM.

Regarding `COc1cccc(Sc2ccc3c(c2)N2CCNCC2C3)c1` (stereo unspecified), the inhibitory constant (Ki) was determined as 110 nM.

`COc1ccc(Sc2ccc3c(c2)N2CCNCC2C3)cc1` (stereo unspecified) showed a Ki of 78 nM.

Compound `Fc1ccccc1Sc1ccc2c(c1)N1CCNCC1C2` (stereo unspecified) came in with a Ki of 150 nM.

Consider `Fc1ccc(Sc2ccc3c(c2)N2CCNCC2C3)cc1` (stereo unspecified), for which the Ki amounted to 160 nM.

`FC(F)(F)c1ccccc1Sc1ccc2c(c1)N1CCNCC1C2` (stereo unspecified) yielded a Ki of 330 nM. This Ki lies about 2.1-fold higher than the previous one.

`FC(F)(F)c1cccc(Sc2ccc3c(c2)N2CCNCC2C3)c1` (stereo unspecified) came in with a Ki of 300 nM.

Compound `FC(F)(F)c1ccc(Sc2ccc3c(c2)N2CCNCC2C3)cc1` (stereo unspecified) came in with a Ki of 760 nM.

Regarding `O=C1NCCN1CCN1CCC(c2cn(-c3ccc(F)cc3)c3ccc(Cl)cc23)CC1` [SERTINDOLE], the Ki turned out to be 5 nM.

The target in a further experiment is T1, 5-hydroxytryptamine receptor 2C (Homo sapiens, UniProt P28335).
T1 sequence (P28335 whole entry): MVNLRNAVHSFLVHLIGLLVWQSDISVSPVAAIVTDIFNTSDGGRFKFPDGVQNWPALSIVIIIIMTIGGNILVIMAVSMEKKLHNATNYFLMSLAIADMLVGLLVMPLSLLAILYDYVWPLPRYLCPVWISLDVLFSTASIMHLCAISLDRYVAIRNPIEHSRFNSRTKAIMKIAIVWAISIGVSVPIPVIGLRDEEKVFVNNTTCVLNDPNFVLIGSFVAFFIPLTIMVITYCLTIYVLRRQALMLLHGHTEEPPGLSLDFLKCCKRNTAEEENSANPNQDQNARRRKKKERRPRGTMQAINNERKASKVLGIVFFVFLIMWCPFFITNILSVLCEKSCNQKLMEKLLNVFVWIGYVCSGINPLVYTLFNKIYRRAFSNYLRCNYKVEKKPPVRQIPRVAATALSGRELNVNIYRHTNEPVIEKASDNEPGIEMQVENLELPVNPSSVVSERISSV
As to the kind of experiment: Displacement of [3H]mesulergine from human 5HT2C receptor in human tsA201 cells. The format is cell-based.
For the compound `c1ccc(Sc2cccc(N3CCNCC3)c2)cc1`, the inhibitory constant (Ki) came to 91 nM. In other words, the double-digit nanomolar range.

Compound `COc1ccc(Sc2cccc(N3CCNCC3)c2)cc1` registered a Ki of 74 nM.

`Cc1ccccc1Sc1ccc2c(c1)N1CCNCC1C2` (stereo unspecified) had an inhibitory constant (Ki) of 49 nM.

`Cc1cccc(Sc2ccc3c(c2)N2CCNCC2C3)c1` (stereo unspecified): the inhibition constant Ki came to 77 nM.

Take `Cc1ccc(Sc2ccc3c(c2)N2CCNCC2C3)cc1` (stereo unspecified): the affinity corresponds to a Ki of 68 nM.

With `COc1ccccc1Sc1ccc2c(c1)N1CCNCC1C2` (stereo unspecified), the affinity, expressed as Ki, was 41 nM.

Compound `COc1cccc(Sc2ccc3c(c2)N2CCNCC2C3)c1` (stereo unspecified) registered a Ki of 120 nM.

`COc1ccc(Sc2ccc3c(c2)N2CCNCC2C3)cc1` (stereo unspecified): the Ki came to 57 nM. This Ki is about 2.1-fold lower than that of the compound before.

For the compound `Fc1ccccc1Sc1ccc2c(c1)N1CCNCC1C2` (stereo unspecified), the Ki amounted to 49 nM.

In the case of `Fc1ccc(Sc2ccc3c(c2)N2CCNCC2C3)cc1` (stereo unspecified), the affinity corresponds to a Ki of 61 nM. This Ki and that of the compound before are within 1.5-fold of each other.

The compound `FC(F)(F)c1ccccc1Sc1ccc2c(c1)N1CCNCC1C2` (stereo unspecified) showed a Ki of 83 nM. This Ki and that of the compound before are within 1.5-fold of each other.

With `FC(F)(F)c1cccc(Sc2ccc3c(c2)N2CCNCC2C3)c1` (stereo unspecified), affinity was put at a Ki of 180 nM.

The compound `FC(F)(F)c1ccc(Sc2ccc3c(c2)N2CCNCC2C3)cc1` (stereo unspecified) registered an inhibition constant (Ki) of 280 nM.

Take `NCCc1cccc(Sc2ccccc2)c1`: the Ki came out at 150 nM.

Source of the values: ChEMBL document CHEMBL1782020, “Novel 7-phenylsulfanyl-1,2,3,4,10,10a-hexahydro-pyrazino[1,2-a]indoles as dual serotonin 5-HT2C and 5-HT6 receptor ligands” (Bioorg Med Chem Lett, 2010).
